Test results reported in patent US20160303245A1, “FATTY ACID DERIVATIVES OF DIMERIC INHIBITORS OF PSD-95” (UNIVERSITY OF COPENHAGEN, priority 2013, published 2016).
Like-named read-outs stand apart in the source and are kept apart here.

Tests used:
[1] = In vivo pharmacokinetics, blood concentration by LC-MS/MS after single s.c. bolus injection; parameters: species or system male Wistar rats; conditions: sc, rat
Source text: To determine the pharmacokinetic properties of FA-linked compounds we measured the concentration of selected compounds in blood by LC-MS/MS following a single subcutaneous (s.c.) bolus injection in male Wistar rats (FIG. 5). From this, it was apparent that all FA-linked dimeric ligands have longer T1/2 and greater Tmax than dimeric ligand without FA (UCCB01-125) (Table 4 and FIG. 5). […] The increased Tmax is explained by a prolonged absorption from the injection site. Overall, these properties enable administration by s.c.depot injections and thereby slow and consistent release of compound into the blood, whereby fewer administrations are needed to maintain pharmaceutical relevant blood concentrations.

[2] = In vitro plasma stability assay (modified, GnHCl before TCA precipitation); type: in vitro ADME; conditions: human plasma; for half-life: 1st order decay fit
Method: The plasma-stability of 1, 4, 7 and 13 was evaluated in a modified version of an in vitro plasma stability assay (Bach et al, Angew. Chem, Int. Ed, 2009, 48, 9685-9689). In the original procedure, the investigated compound was incubated in human plasma. Samples were then taken out at appropriate timepoints and the serum proteins were removed by precipitation with trichloroacetic acid (TCA) followed by analysis of the supernatants by RP-HPLC. The obtained peak areas were normalized to the amount at T0 and fitted to a 1st order decay model to calculate the half-life. When this method was applied to the FA-linked dimeric ligands, sample recoveries were low (<5%). This was caused by the removal of the FA-linked dimeric ligands as HSA-bound complexes during the TCA precipitation. Therefore dissolution of the sample in solid guanidine hydrochloride (GnHCI) to a final concentration of 6M was performed prior to the TCA precipitation. The purpose of this was to unfold the HSA in the sample, releasing the FA-linked dimeric ligand.

[3] = biological target: T1, HSA (Homo sapiens, UniProt P02768); experiment: Transil XL HSA binding assay (immobilized HSA, unbound compound quantified by RP-HPLC)
T1 construct: purchased Sovicell GMBH, Leipzig, Germany
Method: The synthesized FA-linked dimeric ligands (1-12) were evaluated for their HSA affinity using a Transil^XL HSA binding assay kit (Sovicell GMBH, Leipzig, Germany). […] The assay kit consisted of prefilled wells with increasing concentrations of immobilized HSA as well as two control wells without HSA. The HSA had been immobilized in a random fashion to ensure that all binding sites on HSA were available. To conduct the assay, the wells were incubated with a known concentration of the tested compounds, and the unbound amount of compound was quantified using analytical RP-HPLC (C8 column). The fraction of unbound drug (fu) for each data point was calculated from the RP-HPLC data by comparison to a control sample without HSA. […] In eq. 1, it is assumed that the concentration of drug-bound HSA ([HSA-D]) is much lower than the total concentration of HSA in the well ([HSA-D]<<cHSA). The assay kit has been designed such that the assumption is valid for compounds where fu>1%. The calculated KD-values were used to calculate fb at physiological concentration of HSA (588 μM) using equation 2.

[4] = biological target: PSD-95 PDZ1-2 (Homo sapiens, UniProt P78352); experiment: In vitro fluorescence polarization (FP) competition binding assay, in TBS and modified with 1% HSA
Method: Affinity to PSD-95 was measured using an in vitro fluorescence polarization (FP) assay as described by Bach et al (PNAS USA, 2012, 109, 3317-3322). First, a saturation binding curve was obtained to determine KD values for the interaction between a dimeric fluorescent probe and PSD-95 PDZ1-2. Increasing concentrations of PDZ1-2 were added to a constant concentration (0.5 nM) of the probe. The fluorescence polarization of the samples was measured at excitation/emission wavelengths of 635/670 nm and the FP values were fitted to a one site binding model using the program GraphPad Prism. […] The FP values were fitted to a one site competition (variable slope) model in GraphPad Prism. The resulting IC50 were converted to competition inhibition constants, Ki values, as described (Nikolovska-Coleska et al, Anal Biochem, 2004, 332, 261-273). The modified FP assay was conducted as described above with 1% HSA in the assay. The synthesized FA-linked dimeric ligands were evaluated for their affinity to PSD-95 PDZ1-2 in the FP assay. […] We first measured the affinities using a simple tris-buffered saline (TBS) buffer (Table 2, FIG. 3A); but furthermore, we investigated if HSA influenced the ability of the FA-linked dimers to bind PSD95 PDZ1-2 by conducting the FP assay with HSA present in the assay buffer (Table 2, FIG. 3B). […] For a traditional small-molecule drug, it is commonly accepted that the unbound fraction of the drug is free to diffuse across membranes and exerts the physiological effect by interacting with its target (Berezhkovskiy et al, J Pharm Sci 2007, 96, 249-257). I.e. if the drug is bound to another molecule, then it cannot interact with the target at the same time.

[5] = dose 3 mg/kg, mean ± SEM, n = 3
[6] = dose 30 mg/kg, mean ± SEM, n = 3
[7] = dose 15 mg/kg, mean ± SEM, n = 3
[8] = FP data (TBS+HSA) corrected for calculated fu, read-out: Ki(PSD95), free ligand
[9] = FP in TBS with 1% HSA (~150 μM), mean ± SEM, n ≧ 3, read-out: Ki(PSD95) + HSA
[10] = FP in TBS, mean ± SEM, n ≧ 3, read-out: Ki(PSD95)
[11] = dose 10 mg/kg, mean ± SEM, n = 3

T1 sequence (P02768 25-609): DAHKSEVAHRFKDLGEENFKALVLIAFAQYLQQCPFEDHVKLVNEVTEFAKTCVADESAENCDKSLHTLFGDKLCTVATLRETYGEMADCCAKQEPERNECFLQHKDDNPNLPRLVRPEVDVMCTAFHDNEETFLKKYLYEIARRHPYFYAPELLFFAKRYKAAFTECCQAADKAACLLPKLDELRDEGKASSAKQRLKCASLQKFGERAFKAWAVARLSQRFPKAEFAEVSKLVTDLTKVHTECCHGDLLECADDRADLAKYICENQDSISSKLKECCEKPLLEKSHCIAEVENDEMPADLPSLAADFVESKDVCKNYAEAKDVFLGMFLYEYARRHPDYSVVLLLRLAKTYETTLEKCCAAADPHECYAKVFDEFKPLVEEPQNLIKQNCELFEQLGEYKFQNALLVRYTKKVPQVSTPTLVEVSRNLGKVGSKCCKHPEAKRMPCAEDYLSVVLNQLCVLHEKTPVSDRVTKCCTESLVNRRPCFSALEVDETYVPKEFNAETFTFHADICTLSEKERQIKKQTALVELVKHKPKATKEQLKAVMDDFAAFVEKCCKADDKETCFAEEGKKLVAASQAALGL
Chain of PSD-95 PDZ1-2 (P78352 61-249 limits assumed): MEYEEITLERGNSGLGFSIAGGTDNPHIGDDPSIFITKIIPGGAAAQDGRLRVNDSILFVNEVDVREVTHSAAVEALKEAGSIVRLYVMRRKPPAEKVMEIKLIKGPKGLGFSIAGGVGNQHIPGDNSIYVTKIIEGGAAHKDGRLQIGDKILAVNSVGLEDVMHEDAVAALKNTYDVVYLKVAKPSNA

Row | SMILES | Tmax [1, 5] [h] | half-life [1, 5] [h] | Tmax [1, 6] [h] | half-life [1, 6] [h] | half-life [2] [h] | Kd [3] [µM] | fraction unbound [3] | Tmax [1, 7] [h] | half-life [1, 7] [h] | half-life ([1]; single s.c. bolus injection) [h] | Ki [4, 8] [µM] | Ki [4, 9] [µM] | Ki [4, 10] [µM] | In vitro plasma stability [2] | Tmax [1, 11] [h] | half-life [1, 11] [h]
1 | CC[C@H](C)[C@H](NC(=O)CCOCCOCCOCCOCCOCCC(=O)N[C@H](C(=O)N[C@@H](CCC(=O)O)C(=O)N[C@H](C(=O)N[C@@H](C)C(=O)N[C@H](C(=O)O)C(C)C)[C@@H](C)O)[C@@H](C)CC)C(=O)N[C@@H](CCC(=O)O)C(=O)N[C@H](C(=O)N[C@@H](C)C(=O)N[C@H](C(=O)O)C(C)C)[C@@H](C)O [UCCB01-125, reference compound] | 0.5 | 0.561 ± 0.101 | 0.5 | 0.45 ± 0.068 | 1.7 | 154 | 0.507 | – | – | – | – | – | – | – | – | –
2 | CC[C@H](C)[C@H](NC(=O)CCOCCOCCN(CCOCCOCCC(=O)N[C@H](C(=O)N[C@@H](CCC(=O)O)C(=O)N[C@H](C(=O)N[C@@H](C)C(=O)N[C@H](C(=O)O)C(C)C)[C@@H](C)O)[C@@H](C)CC)C(=O)CCCNC(=O)CCCCCCCCCCCCCCCCC(=O)O)C(=O)N[C@@H](CCC(=O)O)C(=O)N[C@H](C(=O)N[C@@H](C)C(=O)N[C@H](C(=O)O)C(C)C)[C@@H](C)O [Compound 4] | – | – | – | – | > 24 | 19.4 ± 3.6 | 0.115 | 4.67 ± 0.66 | 8.13 ± 0.5 | > 8 | 0.654 ± 0.034 | 5.72 ± 0.298 | 0.0114 ± 0.0006 | highly stable | – | –
3 | CCCCCCCCCCCCCCCCCC(=O)N[C@@H](CCC(=O)N(CCOCCOCCC(=O)N[C@H](C(=O)N[C@@H](CCC(=O)O)C(=O)N[C@H](C(=O)N[C@@H](C)C(=O)N[C@H](C(=O)O)C(C)C)[C@@H](C)O)[C@@H](C)CC)CCOCCOCCC(=O)N[C@H](C(=O)N[C@@H](CCC(=O)O)C(=O)N[C@H](C(=O)N[C@@H](C)C(=O)N[C@H](C(=O)O)C(C)C)[C@@H](C)O)[C@@H](C)CC)C(=O)O [Compound 7] | – | – | – | – | > 24 | 6.8 ± 1.2 | 0.043 | – | – | > 8 | 0.0591 | 1.39 ± 0.184 | 0.017 | highly stable | 6 ± 1.15 | 10.7 ± 0.58
4 | CCCCCCCCCCCC(=O)NCCCC(=O)N(CCOCCOCCC(=O)N[C@H](C(=O)N[C@@H](CCC(=O)O)C(=O)N[C@H](C(=O)N[C@@H](C)C(=O)N[C@H](C(=O)O)C(C)C)[C@@H](C)O)[C@@H](C)CC)CCOCCOCCC(=O)N[C@H](C(=O)N[C@@H](CCC(=O)O)C(=O)N[C@H](C(=O)N[C@@H](C)C(=O)N[C@H](C(=O)O)C(C)C)[C@@H](C)O)[C@@H](C)CC [Compound 1] | – | – | – | – | 23.6 | – | 0.151 | 0.833 ± 0.167 | 0.768 ± 0.045 | – | – | – | – | degraded faster | – | –
5 | CCCCCCCCCCCCCCCCCC(=O)NCCCC(=O)N(CCOCCOCCC(=O)N[C@H](C(=O)N[C@@H](CCC(=O)O)C(=O)N[C@H](C(=O)N[C@@H](CC(=O)O)C(=O)N[C@H](C(=O)O)C(C)C)[C@@H](C)O)[C@@H](C)CC)CCOCCOCCC(=O)N[C@H](C(=O)N[C@@H](CCC(=O)O)C(=O)N[C@H](C(=O)N[C@@H](CC(=O)O)C(=O)N[C@H](C(=O)O)C(C)C)[C@@H](C)O)[C@@H](C)CC [Compound 13] | – | – | – | – | > 24 | 83 | 0.356 | – | – | > 8 | – | – | – | highly stable | 8 | 16.3 ± 2.81
